Data on three molecules can be found in patent publication US11209420B2, “Cancer diagnostics, therapeutics, and drug discovery associated with macropinocytosis” (New York University, priority 2011, dated 2021).

In data set [1] the test system is T24 cells. Briefly: TMR-dextran labeling of macropinosomes. The following applies: T24, oncogenic H-Ras. It counts as cell-based. As to the method:
(§1) It was postulated that cancer cells harboring oncogenic Ras mutations would display higher levels of macropinocytosis compared to cancer cells having a non-mutant Ras. For pancreatic cancer cells, macropinocytosis was analyzed in MIA-Paca-2 cells, which are homozygous for the oncogenic K-Ras^G12C allele (Lopez-Crapez et al., “Rapid and Large-Scale Method to Detect K-Ras Gene Mutations in Tumor Samples,” Clin. Chem. 43(6 Pt 1):936-42 (1997) and Pretlow et al., “K-Ras Mutations in Putative Preneoplastic Lesions in Human Colon,” J. Natl. Cancer Inst. 85(24):2004-7 (1993), which are hereby incorporated by reference in their entirety) and BxPc-3 cells that only express wild-type K-Ras (Aoki et al., “Liposome-Mediated in vivo Gene Transfer of Antisense K-Ras Construct Inhibits Pancreatic Tumor Dissemination in the Murine Peritoneal Cavity,” Cancer Res. 55(17):3810-6 (1995), which is hereby incorporated by reference in its entirety). As a bladder model, uptake in T24 and 5637 cells was analyzed. T24 cells are homozygous for the oncogenic H-Ras^V12C allele and 5637 cells only express wild-type H-Ras. […]

Data set [2] concerns MIA-Paca-2 cells. Briefly: TMR-dextran labeling of macropinosomes. Type of data set: cell-based, human. As to conditions: MIA-Paca-2, oncogenic K-Ras^G12C. The method, then: as §1
The subject of data set [3] is NIH 3T3 [K-Ras^G12V] cells. The data set can be described thus: Intracellular glutamate and α-ketoglutarate levels after albumin supplementation. Type of data set: cell-based, murine. As to conditions: complete medium + 2% albumin, 24 hours. As to the method:
Glutamine is a major nutrient for many proliferating cells and is rapidly metabolized to glutamate, then α-ketoglutarate to enter central carbon metabolism. To test whether the favorable effects of albumin supplementation on cell growth were related to glutamine metabolism, the intracellular concentrations of glutamate and α-ketoglutarate in cells grown either in the absence or presence of albumin was measured. NIH 3T3 [K-Ras^G12V] cells were cultured for 24 hours in complete media (CM) supplemented to physiological concentrations of albumin (2 g/100 mL, 2%). As a control, NIH 3T3 [K-Ras^G12V] cells were also cultured in CM alone, which contains minimal levels of albumin (˜0.2%). Cells were lysed and metabolite levels were determined from deproteinized cell lysates. The addition of albumin to the media led to significant increases in intracellular concentrations of both glutamate and α-ketoglutarate (FIG. 20A).

Data set [4] concerns MIA-Paca-2 cells. The data set can be described thus: FITC-BSA internalization. Type of data set: cell-based, human. The method, then:
(§2) When added to the growth medium, fluorescently-labeled bovine serum albumin (FITC-BSA) was incorporated into vesicular compartments in oncogenic Ras^V12-expressing HeLa cells (FIG. 6A), MIA-Paca-2, and T24 cells. […] Quantification of FITC-BSA uptake was performed utilizing an amended form of the high-throughput protocol described herein (FIG. 6B). Using colocalization experiments, it was observed that FITC-BSA is internalized with a macropinocytosis marker, dextran (FIG. 7A-7C). To be utilized as a nutrient source, the protein contents of Ras-stimulated macropinosomes must be delivered to a degradative compartment, such as the lysosome. The fate of the macropinosomes was followed via pulse chase experiments and their fusion with lysosomes was monitored by co-staining with lysosomal markers (i.e. Lysotracker). Cells were pulsed with TMR-dextran and incubated with TMR-dextran-free media for varying intervals. At the end of the incubation period, cells were stained with a lysosomal marker and visualized by fluorescent microscopy.

The test system of data set [5] is oncogenic Ras^V12-expressing HeLa cells. Briefly: FITC-BSA internalization. It counts as cell-based, human. As to the method:
as §2

Data set [6] concerns HeLa cells expressing HA-H-Ras^V12. The data set can be described thus: High-throughput macropinocytosis assay (TMR-dextran uptake, Arrayscan spot detection). Type of data set: cell-based, human. As to conditions: 30 min pre-incubation in serum-free media, then TMR-dextran 30 min; dose-response. From the text:
To analyze and quantify Ras-stimulated macropinocytosis, a high content screening (HCS)-compatible platform designed for rapid spot analysis was desired. One such platform is the Arrayscan HCS Reader (Cellomics) in conjunction with the Spot Detector BioApplication (Cellomics), which is designed to provide fluorescent- and image-based generic spot analysis for multiple biological applications. As a model cell-based system, a HeLa Tet-Off (HTO) cell line (Clontech) stably transfected with a tetracycline-repressible transgene encoding an oncogenic form of hemagglutinin (HA)-tagged H-Ras (H-Ras^V12) was used. In brief, 2000 cells per well were plated in 384-well plate format in a total volume of 50 μL. To induce expression of H-Ras^V12, cells were plated in media lacking tetracycline, while control cells were plated in 50 ng/mL tetracycline. […] Macropinosomes were analyzed on a cell-to-cell basis using multichannel analysis on the Arrayscan HCS Reader (FIG. 21A). […] A circular spot identification target region (or mask) was then applied for each object on Channel 2, and spots were detected based on their fluorescent intensity, size, and shape. […] To quantify this, the output feature selected for Channel 2 was Spot Count Per Object, which is effectively a measure of total number amount of fluorescent extracellular fluid internalized per cell in a given incubation time. […]

Data set [7] deals with T24 cells. Briefly: FITC-BSA internalization. It counts as cell-based. As to the method:
as §2

The subject of data set [8] is macropinocytosis. The following applies: cited from earlier work.
The subject of data set [9] is oncogenic Ras^V12-expressing HeLa cells. Briefly: Survival under glutamine starvation with extracellular albumin. It counts as cell-based, human. The following applies: glutamine-free media, low BSA or 2% BSA. As to the method: If albumin internalization via Ras-stimulated macropinocytosis serves to augment the glutamine supply, then this process should confer a survival and growth advantage under conditions where free glutamine is limiting. To test this prediction, the survival of oncogenic Ras^V12-expressing HeLa cells was tested. […] It was hypothesized that this was due to albumin-derived amino acids that were augmenting the intracellular glutamine supply. It was determined that Ras^V12-survival was enhanced at higher concentrations of extracellular albumin (up to 2%; FIG. 13) and that this survival enhancement was suppressed by EIPA, a macropinocytosis inhibitor (FIGS. 14A-14B).

The conditions of data set [10]: cited from earlier work.
The test system of data set [11] is oncogenic Ras-transformed cells. Briefly: Proliferation in low glutamine with physiological albumin. The following applies: 0.2 mM glutamine, rescued by increased glutamine or α-ketoglutarate. Type of data set: cell-based.
Data set [12] relates to K-Ras^V12-transformed NIH3T3 cells. Briefly: High-throughput macropinocytosis assay, amended protocol. It counts as cell-based, murine. The following applies: high-throughput quantification. From the text: To explore the flexibility of the high-throughput compatible macropinocytosis assay, the HeLa-based Spot Detector BioApplication parameters were amended to quantify macropinocytosis in K-Ras^V12-expressing NIH3T3 cells. To do this, object identification parameters were altered to accommodate larger nuclei and the spot identification target region was adjusted accordingly. Untransformed NIH3T3 cells display low levels of macropinocytosis, compared to K-Ras^V12-transformed cells. Using this amended protocol, it was possible to quantify fluid-phase uptake in these cells and determine that K-Ras^V12-expressing cells have a 3-4 fold increase in macropinocytosis (FIGS. 2A-2B). To examine the effects of macropinocytosis inhibitors, K-Ras^V12-transformed NIH3T3 cells were treated with increasing concentrations of LY294002 or EIPA.

As for `CCN(c1nc(N)c(C(=O)N=C(N)N)nc1Cl)C(C)C` [EIPA, 5-N-ethyl-N-isoproamiloride], the “TMR-dextran labeling (macropinocytosis)” value in data set [1] and in data set [2] was “inhibited” throughout. Moreover, in data set [3] (25 mM EIPA), the “albumin-dependent increase in intracellular α-ketoglutarate” value was “blocked”. In [3] (EIPA), the “albumin-dependent increase in intracellular glutamate” value was “blocked”. For the same molecule, the FITC-BSA internalization entry in data set [4], in [5] and in data set [7] was “inhibited” throughout. The “concentration at which maximal inhibition of macropinocytosis occurs” value in data set [6] amounted to 100 µM. Moreover, the “concentrations at which it exerts its effects on macropinocytosis” value in [8] was 50 to 100 µM. The “survival enhancement by extracellular albumin” value in data set [9] is reported as “suppressed”. Also, the “solubility in cell culture media” value in [10] is listed as “soluble in cell culture media”. Moreover, in data set [11], the effect on proliferation entry is listed as “anti-proliferative response”. The “effect on macropinocytosis with increasing concentrations” value in data set [12] was “dose-response relationship”.

For `O=c1cc(N2CCOCC2)oc2c(-c3ccccc3)cccc12` [LY294002, 2-(4-morpholinyl)-8-phenyl-4H-1-benzopyran-4], the “concentration at which maximal inhibition of macropinocytosis occurs” value in [6] stood at 100 µM.

Turning to `N=C(N)NC(=O)c1nc(Cl)c(N)nc1N` [amiloride], the “concentrations at which it exerts its effects on macropinocytosis” value in [8] was 1000 to 5000 µM.
